From patent publication US5332731A, “Cephalosporin derivatives” (Meiji Seika Kaisha, Ltd., priority 1989, dated 1994)
In brackets after ≈: the same amount, converted by molar mass.

Legend:
oral toxicity in mice = conditions: mouse, in vivo, oral administration, read-out: oral dosage tolerated without exhibiting toxic symptoms
Experimental: The new cephalosporin derivative of this invention may be administered orally at a unit dose of 100 mg to 250 mg to an adult human patient four times a day, for a guideline. However, precise dosage of the new cephalosporin is determinable through preliminary routine experiments, depending on the body weight, ages, sex and other various parameters of patients as well as the nature of the bacterial infections to be treated, and so on.

[1] = tested on: Citrobacter freundii GN346/16; assay: antibacterial activity, MIC by standard serial dilution method; type: cell-based
Source text: (§1) Antibacterial activity of Compounds Nos. 1, 3, 5, 7, 9, 11, 13, 15, 17, 19, 21, 23, 25, 27, 29, 31, 33, 35 and 37 indentified hereinbefore which are the particular examples of the new cephalosporin derivative of general formula (I) according to this invention and which are in the form of the free carboxylic acid was estimated by determining the minimum inhibitory concentrations (MIC., μg/ml) of these compounds against a variety of bacteria according to a standard serial dilution method.

[2] = tested on: Citrobacter freundii GN346; assay: as above; type: cell-based
Source text: as §1

[3] = tested on: Enterobacter cloacae G-0008; assay: as above; type: cell-based; conditions: G0008
Source text: as §1

[4] = tested on: Enterobacter cloacae GN7471; assay: as above; type: cell-based
Source text: as §1

[5] = tested on: Enterobacter hirae ATCC8043; assay: as above; type: cell-based
Source text: as §1

[6] = tested on: Entrobacter faecalis W-73; assay: as above; type: cell-based
Source text: as §1

Escherichia coli 255/S-1 = assay: as above; type: cell-based; conditions: 255/S1
Source text: as §1

Escherichia coli 255 = assay: as above; type: cell-based
Source text: as §1

Escherichia coli GN206 = assay: as above; type: cell-based
Source text: as §1

[7] = tested on: Escherichia coli NIHJ JC-2; assay: as above; type: cell-based; conditions: NIHJJC2
Source text: as §1

[8] = tested on: Escherichia coli W3630 RGN823; assay: as above; type: cell-based; conditions: W3630RGN823
Source text: as §1

[9] = tested on: Klebsiella pneumoniae GN69; assay: as above; type: cell-based
Source text: as §1

[10] = tested on: Klebsiella pneumoniae PCI602; assay: as above; type: cell-based
Source text: as §1

[11] = tested on: Marganella morganii 1510/S-1; assay: as above; type: cell-based
Source text: as §1

Marganella morganii 1510 = assay: as above; type: cell-based
Source text: as §1

[12] = tested on: Proteus vulgaris GN76/C-1; assay: as above; type: cell-based
Source text: as §1

Proteus vulgaris GN76 = assay: as above; type: cell-based
Source text: as §1

[13] = tested on: Pseudomonas aeruginosa GN10362; assay: as above; type: cell-based
Source text: as §1

[14] = tested on: Serratia marcescens GN10857; assay: as above; type: cell-based
Source text: as §1

[15] = tested on: Serratia marcescens No. 1; assay: as above; type: cell-based
Source text: as §1

[16] = tested on: Staphylococcus aureus 209P JC-1; assay: as above; type: cell-based
Source text: as §1

[17] = tested on: Staphylococcus epidermidis ATCC14990; assay: as above; type: cell-based
Source text: as §1

Structure (SMILES)	MIC [1]	MIC [2]	MIC [3]	MIC [4]	MIC [5]	MIC [6]	MIC (Escherichia coli 255/S-1)	MIC (Escherichia coli 255)	MIC (Escherichia coli GN206)	MIC [7]	MIC [8]	MIC [9]	MIC [10]	MIC [11]	MIC (Marganella morganii 1510)	MIC [12]	MIC (Proteus vulgaris GN76)	MIC [13]	MIC [14]	MIC [15]	also measured
CO/N=C(\C(=O)NC1C(=O)N2C(C(=O)OCOC(=O)C(C)(C)C)=C(SCC3CCOC3)CS[C@H]12)c1csc(N)n1 (some centres unmarked) [Compound No. 28, pivaloyloxymethyl 7-[(Z)-2-(2-aminothiazol-4-yl)-2-methoxyiminoacetamido]-3-(tetrahydrofuran-3-yl) methylthio-3-cephem-4-carboxylate]	–	–	–	–	–	–	–	–	–	–	–	–	–	–	–	–	–	–	–	–	NOAEL (oral toxicity in mice): 3000 mg/kg
CO/N=C(\C(=O)NC1C(=O)N2C(C(=O)O)=C(SCC3CCOC(C)(C)O3)CS[C@H]12)c1csc(N)n1 (some centres unmarked) [Compound No. 9, 7-[(Z)-2-(2-aminothiazol-4-yl)-2-methoxyiminoacetamido]-3-(2,2-dimethyl-1,3-dioxan-4-yl)methylthio-3-cephem-4-carboxylic acid]	6.25 µg/mL (≈ 11.5 µM)	> 100 µg/mL	3.13 µg/mL (≈ 5.76 µM)	50 µg/mL (≈ 92 µM)	25 µg/mL (≈ 46 µM)	100 µg/mL (≈ 184 µM)	6.25 µg/mL (≈ 11.5 µM)	100 µg/mL (≈ 184 µM)	12.5 µg/mL (≈ 23 µM)	3.13 µg/mL (≈ 5.76 µM)	1.56 µg/mL (≈ 2.87 µM)	1.56 µg/mL (≈ 2.87 µM)	3.13 µg/mL (≈ 5.76 µM)	1.56 µg/mL (≈ 2.87 µM)	100 µg/mL (≈ 184 µM)	3.13 µg/mL (≈ 5.76 µM)	0.78 µg/mL (≈ 1.43 µM)	> 100 µg/mL	50 µg/mL (≈ 92 µM)	3.13 µg/mL (≈ 5.76 µM)	MIC [16]: 1.56 µg/mL (≈ 2.87 µM); MIC [17]: 1.56 µg/mL (≈ 2.87 µM)
Nc1nc(/C(=N/O)C(=O)NC2C(=O)N3C(C(=O)O)=C(SCC4CCCO4)CS[C@H]23)cs1 (some centres unmarked) [Compound No. 11, 7-[(Z)-2-(2-aminothiazol-4-yl)-2-hydroxyiminoacetamido]-3-tetrahydrofurfurylthio-3-cephem-4-carboxylic acid]	6.25 µg/mL (≈ 12.9 µM)	> 100 µg/mL	1.56 µg/mL (≈ 3.21 µM)	50 µg/mL (≈ 103 µM)	6.25 µg/mL (≈ 12.9 µM)	6.25 µg/mL (≈ 12.9 µM)	0.78 µg/mL (≈ 1.61 µM)	50 µg/mL (≈ 103 µM)	12.5 µg/mL (≈ 25.7 µM)	1.56 µg/mL (≈ 3.21 µM)	1.56 µg/mL (≈ 3.21 µM)	0.78 µg/mL (≈ 1.61 µM)	0.78 µg/mL (≈ 1.61 µM)	0.39 µg/mL (≈ 0.803 µM)	50 µg/mL (≈ 103 µM)	6.75 µg/mL (≈ 13.9 µM)	0.78 µg/mL (≈ 1.61 µM)	> 100 µg/mL	> 100 µg/mL	1.56 µg/mL (≈ 3.21 µM)	MIC [16]: 0.2 µg/mL (≈ 0.412 µM); MIC [17]: 0.2 µg/mL (≈ 0.412 µM)
CO/N=C(\C(=O)NC1C(=O)N2C(C(=O)O)=C(SC3COCOC3)CSC12)c1csc(N)n1 (centres unmarked) [Compound No. 19]	3.13 µg/mL (≈ 6.24 µM)	> 100 µg/mL	0.39 µg/mL (≈ 0.778 µM)	50 µg/mL (≈ 99.7 µM)	25 µg/mL (≈ 49.8 µM)	100 µg/mL (≈ 199 µM)	0.39 µg/mL (≈ 0.778 µM)	25 µg/mL (≈ 49.8 µM)	3.13 µg/mL (≈ 6.24 µM)	0.39 µg/mL (≈ 0.778 µM)	0.78 µg/mL (≈ 1.56 µM)	0.2 µg/mL (≈ 0.399 µM)	< 0.025 µg/mL	0.1 µg/mL (≈ 0.199 µM)	12.5 µg/mL (≈ 24.9 µM)	1.56 µg/mL (≈ 3.11 µM)	0.05 µg/mL (≈ 0.0997 µM)	> 100 µg/mL	50 µg/mL (≈ 99.7 µM)	0.78 µg/mL (≈ 1.56 µM)	MIC [16]: 0.39 µg/mL (≈ 0.778 µM); MIC [17]: 0.78 µg/mL (≈ 1.56 µM)
CC1(C)OCCC(CSC2=C(C(=O)O)N3C(=O)C(NC(=O)/C(=N\O)c4csc(N)n4)[C@H]3SC2)O1 (some centres unmarked) [Compound No. 17, 7 - [(Z)-2-(2-aminothiazol-4-yl) -2-hydroxyiminoacetamido]-3-(2,2-dimethyl-1,3-dioxan-4-yl)methylthio-3-cephem-4-carboxylic acid]	12.5 µg/mL (≈ 23.6 µM)	> 100 µg/mL	12.5 µg/mL (≈ 23.6 µM)	> 100 µg/mL	25 µg/mL (≈ 47.2 µM)	6.25 µg/mL (≈ 11.8 µM)	6.25 µg/mL (≈ 11.8 µM)	100 µg/mL (≈ 189 µM)	25 µg/mL (≈ 47.2 µM)	6.25 µg/mL (≈ 11.8 µM)	6.25 µg/mL (≈ 11.8 µM)	3.13 µg/mL (≈ 5.91 µM)	6.25 µg/mL (≈ 11.8 µM)	3.13 µg/mL (≈ 5.91 µM)	> 100 µg/mL	25 µg/mL (≈ 47.2 µM)	3.13 µg/mL (≈ 5.91 µM)	> 100 µg/mL	> 100 µg/mL	12.5 µg/mL (≈ 23.6 µM)	MIC [16]: 0.78 µg/mL (≈ 1.47 µM); MIC [17]: 0.39 µg/mL (≈ 0.736 µM)
